Laboratory results reported in the NIST ThermoML archive (doi:10.1007/s10765-005-8096-3).
± gives the expanded uncertainty stated by the source.

assay: refractive index (Na D-line) (dimensionless); details: 298.15 K; 101.33 kPa; Liquid; Standard Abbe refractometry

Structure (SMILES) | refractive index
Cc1cc(C)cc(C)c1 [1,3,5-trimethylbenzene] | 1.49682 ± 0.00075
Cc1ccc(C)cc1 [1,4-dimethylbenzene] | 1.49298 ± 0.00075
CC(C)(C)c1ccccc1 [(1,1-dimethylethyl)benzene] | 1.49003 ± 0.00075
CC(C)Cc1ccccc1 [(2-methylpropyl)benzene] | 1.48397 ± 0.00075
CCCCOC(C)=O [butyl ethanoate] | 1.39176 ± 0.00075
CCCCc1ccccc1 [butylbenzene] | 1.48735 ± 0.00075
CCc1ccccc1 [ethylbenzene] | 1.49316 ± 0.00075
CC(C)c1ccccc1 [isopropylbenzene] | 1.48869 ± 0.00075
Cc1ccccc1 [toluene] | 1.49399 ± 0.00075
